Results: the supplement of paper PMC10307832

Tests used:
Experiment in all cases: relative viability (nuclei count vs DMSO), 5 days (fraction); higher = more cells survive
[1] = compound: CN(NC(=O)CC(=O)NN(C)C(=S)c1ccccc1)C(=S)c1ccccc1 [Elesclomol] + O=C(c1cc(Cc2n[nH]c(=O)c3ccccc23)ccc1F)N1CCN(C(=O)C2CC2)CC1 [Olaparib] (partner 8 µM)
Procedure, shortened: (§1)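 Cells from lung cancer lines were seeded into 1536-well plates and, one day later, dosed by pin tool. Treatments were either a single drug or a fixed dose of an anchor drug with five library-drug doses (not always all listed) in √10 steps. After 5 days, nuclei were stained in a one-step fixation (final 0.05% Triton X-100, 1% formaldehyde, 1 ug/ml Hoechst) and counted on 4× images, and relative viability is the treated-to-vehicle nuclei ratio, as the median of duplicate plates.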

[2] = compound: CN(NC(=O)CC(=O)NN(C)C(=S)c1ccccc1)C(=S)c1ccccc1 [Elesclomol] + Nc1ncn([C@H]2C[C@H](O)[C@@H](CO)O2)c(=O)n1 [Decitabine] (partner 2 µM)
Procedure, shortened: as §1

[3] = compound: CN(NC(=O)CC(=O)NN(C)C(=S)c1ccccc1)C(=S)c1ccccc1 [Elesclomol] + Cc1nc(Nc2ncc(C(=O)Nc3c(C)cccc3Cl)s2)cc(N2CCN(CCO)CC2)n1 [Dasatinib] (partner 0.075 µM)
Procedure, shortened: as §1

[4] = compound: CN(NC(=O)CC(=O)NN(C)C(=S)c1ccccc1)C(=S)c1ccccc1 [Elesclomol] + CC1(C)CCC(c2ccc(Cl)cc2)=C(CN2CCN(c3ccc(C(=O)NS(=O)(=O)c4ccc(N[C@H](CCN5CCOCC5)CSc5ccccc5)c(S(=O)(=O)C(F)(F)F)c4)cc3)CC2)C1 [Navitoclax] (partner 0.5 µM)
Procedure, shortened: as §1

[5] = compound: CN(NC(=O)CC(=O)NN(C)C(=S)c1ccccc1)C(=S)c1ccccc1 [Elesclomol] + COc1cc2c(Oc3ccc(NC(=O)C4(C(=O)Nc5ccc(F)cc5)CC4)cc3F)ccnc2cc1OCCCN1CCOCC1 [Foretinib] (partner 0.25 µM)
Procedure, shortened: as §1

## NCI-H647
[1]; first compound 0.003162 µM
  relative viability: 0.547
[1]; first compound 0.01 µM
  relative viability: 0.357
[1]; first compound 0.03162 µM
  relative viability: 0.128
[1]; first compound 0.1 µM
  relative viability: 0.0704
[2]; first compound 0.003162 µM
  relative viability: 0.355
[2]; first compound 0.01 µM
  relative viability: 0.293
[2]; first compound 0.03162 µM
  relative viability: 0.259
[2]; first compound 0.1 µM
  relative viability: 0.0841
[3]; first compound 0.003162 µM
  relative viability: 0.172
[3]; first compound 0.01 µM
  relative viability: 0.142
[3]; first compound 0.03162 µM
  relative viability: 0.0544
[3]; first compound 0.1 µM
  relative viability: 0.0326
[4]; first compound 0.003162 µM
  relative viability: 1.05
[4]; first compound 0.01 µM
  relative viability: 0.665
[4]; first compound 0.03162 µM
  relative viability: 0.191
[4]; first compound 0.1 µM
  relative viability: 0.0372
[5]; first compound 0.003162 µM
  relative viability: 1.05
[5]; first compound 0.01 µM
  relative viability: 0.973
[5]; first compound 0.03162 µM
  relative viability: 0.359
[5]; first compound 0.1 µM
  relative viability: 0.0921

## A-427
[1]; first compound 0.003162 µM
  relative viability: 0.52
[1]; first compound 0.01 µM
  relative viability: 0.424
[1]; first compound 0.03162 µM
  relative viability: 0.232
[1]; first compound 0.1 µM
  relative viability: 0.164
[2]; first compound 0.003162 µM
  relative viability: 0.601
[2]; first compound 0.01 µM
  relative viability: 0.453
[2]; first compound 0.03162 µM
  relative viability: 0.285
[2]; first compound 0.1 µM
  relative viability: 0.194
[3]; first compound 0.003162 µM
  relative viability: 0.661
[3]; first compound 0.01 µM
  relative viability: 0.582
[3]; first compound 0.03162 µM
  relative viability: 0.358
[3]; first compound 0.1 µM
  relative viability: 0.127
[4]; first compound 0.003162 µM
  relative viability: 0.904
[4]; first compound 0.01 µM
  relative viability: 0.827
[4]; first compound 0.03162 µM
  relative viability: 1
[4]; first compound 0.1 µM
  relative viability: 0.499
[5]; first compound 0.003162 µM
  relative viability: 0.981
[5]; first compound 0.01 µM
  relative viability: 0.956
[5]; first compound 0.03162 µM
  relative viability: 0.917
[5]; first compound 0.1 µM
  relative viability: 0.157

## LXF-289
[1]; first compound 0.003162 µM
  relative viability: 1.11
[1]; first compound 0.01 µM
  relative viability: 1.01
[1]; first compound 0.03162 µM
  relative viability: 0.939
[1]; first compound 0.1 µM
  relative viability: 0.544
[2]; first compound 0.003162 µM
  relative viability: 0.395
[2]; first compound 0.01 µM
  relative viability: 0.39
[2]; first compound 0.03162 µM
  relative viability: 0.389
[2]; first compound 0.1 µM
  relative viability: 0.253
[3]; first compound 0.003162 µM
  relative viability: 0.243
[3]; first compound 0.01 µM
  relative viability: 0.176
[3]; first compound 0.03162 µM
  relative viability: 0.202
[3]; first compound 0.1 µM
  relative viability: 0.113
[4]; first compound 0.003162 µM
  relative viability: 0.851
[4]; first compound 0.01 µM
  relative viability: 0.924
[4]; first compound 0.03162 µM
  relative viability: 0.875
[4]; first compound 0.1 µM
  relative viability: 0.575
[5]; first compound 0.003162 µM
  relative viability: 0.979
[5]; first compound 0.01 µM
  relative viability: 0.942
[5]; first compound 0.03162 µM
  relative viability: 0.894
[5]; first compound 0.1 µM
  relative viability: 0.684

## NCI-H727
[1]; first compound 0.003162 µM
  relative viability: 0.587
[1]; first compound 0.01 µM
  relative viability: 0.7
[1]; first compound 0.03162 µM
  relative viability: 0.712
[1]; first compound 0.1 µM
  relative viability: 0.416
[2]; first compound 0.003162 µM
  relative viability: 0.98
[2]; first compound 0.01 µM
  relative viability: 0.836
[2]; first compound 0.03162 µM
  relative viability: 0.847
[2]; first compound 0.1 µM
  relative viability: 0.528
[3]; first compound 0.003162 µM
  relative viability: 0.319
[3]; first compound 0.01 µM
  relative viability: 0.242
[3]; first compound 0.03162 µM
  relative viability: 0.128
[3]; first compound 0.1 µM
  relative viability: 0.0864
[4]; first compound 0.003162 µM
  relative viability: 0.368
[4]; first compound 0.01 µM
  relative viability: 0.213
[4]; first compound 0.03162 µM
  relative viability: 0.109
[4]; first compound 0.1 µM
  relative viability: 0.0643
[5]; first compound 0.003162 µM
  relative viability: 0.745
[5]; first compound 0.01 µM
  relative viability: 0.611
[5]; first compound 0.03162 µM
  relative viability: 0.526
[5]; first compound 0.1 µM
  relative viability: 0.317

## NCI-H1437
[1]; first compound 0.003162 µM
  relative viability: 0.555
[1]; first compound 0.01 µM
  relative viability: 0.461
[1]; first compound 0.03162 µM
  relative viability: 0.379
[1]; first compound 0.1 µM
  relative viability: 0.359
[2]; first compound 0.003162 µM
  relative viability: 0.602
[2]; first compound 0.01 µM
  relative viability: 0.493
[2]; first compound 0.03162 µM
  relative viability: 0.438
[2]; first compound 0.1 µM
  relative viability: 0.337
[3]; first compound 0.003162 µM
  relative viability: 0.246
[3]; first compound 0.01 µM
  relative viability: 0.18
[3]; first compound 0.03162 µM
  relative viability: 0.116
[3]; first compound 0.1 µM
  relative viability: 0.128
[4]; first compound 0.003162 µM
  relative viability: 1.02
[4]; first compound 0.01 µM
  relative viability: 0.67
[4]; first compound 0.03162 µM
  relative viability: 0.474
[4]; first compound 0.1 µM
  relative viability: 0.455
[5]; first compound 0.003162 µM
  relative viability: 1.11
[5]; first compound 0.01 µM
  relative viability: 0.79
[5]; first compound 0.03162 µM
  relative viability: 0.609
[5]; first compound 0.1 µM
  relative viability: 0.464

## RERF-LC-KJ
[1]; first compound 0.003162 µM
  relative viability: 0.613
[1]; first compound 0.01 µM
  relative viability: 0.473
[1]; first compound 0.03162 µM
  relative viability: 0.326
[1]; first compound 0.1 µM
  relative viability: 0.323
[2]; first compound 0.003162 µM
  relative viability: 0.414
[2]; first compound 0.01 µM
  relative viability: 0.288
[2]; first compound 0.03162 µM
  relative viability: 0.297
[2]; first compound 0.1 µM
  relative viability: 0.222
[3]; first compound 0.003162 µM
  relative viability: 0.37
[3]; first compound 0.01 µM
  relative viability: 0.326
[3]; first compound 0.03162 µM
  relative viability: 0.255
[3]; first compound 0.1 µM
  relative viability: 0.157
[4]; first compound 0.003162 µM
  relative viability: 0.47
[4]; first compound 0.01 µM
  relative viability: 0.288
[4]; first compound 0.03162 µM
  relative viability: 0.293
[4]; first compound 0.1 µM
  relative viability: 0.191
[5]; first compound 0.003162 µM
  relative viability: 0.858
[5]; first compound 0.01 µM
  relative viability: 0.812
[5]; first compound 0.03162 µM
  relative viability: 0.522
[5]; first compound 0.1 µM
  relative viability: 0.323

## EPLC-272H
[1]; first compound 0.003162 µM
  relative viability: 0.592
[1]; first compound 0.01 µM
  relative viability: 0.157
[1]; first compound 0.03162 µM
  relative viability: 0.132
[1]; first compound 0.1 µM
  relative viability: 0.178
[2]; first compound 0.003162 µM
  relative viability: 0.35
[2]; first compound 0.01 µM
  relative viability: 0.134
[2]; first compound 0.03162 µM
  relative viability: 0.0913
[2]; first compound 0.1 µM
  relative viability: 0.103
[3]; first compound 0.003162 µM
  relative viability: 0.397
[3]; first compound 0.03162 µM
  relative viability: 0.405
[3]; first compound 0.1 µM
  relative viability: 0.059
[4]; first compound 0.003162 µM
  relative viability: 1.1
[4]; first compound 0.03162 µM
  relative viability: 1.03
[4]; first compound 0.1 µM
  relative viability: 0.164
[5]; first compound 0.003162 µM
  relative viability: 0.67
[5]; first compound 0.03162 µM
  relative viability: 0.672
[5]; first compound 0.1 µM
  relative viability: 0.0988

## NCI-H596
[1]; first compound 0.003162 µM
  relative viability: 0.672
[1]; first compound 0.01 µM
  relative viability: 0.608
[1]; first compound 0.03162 µM
  relative viability: 0.503
[1]; first compound 0.1 µM
  relative viability: 0.258
[2]; first compound 0.003162 µM
  relative viability: 1.03
[2]; first compound 0.01 µM
  relative viability: 0.903
[2]; first compound 0.03162 µM
  relative viability: 0.664
[2]; first compound 0.1 µM
  relative viability: 0.241
[3]; first compound 0.003162 µM
  relative viability: 0.606
[3]; first compound 0.01 µM
  relative viability: 0.545
[3]; first compound 0.03162 µM
  relative viability: 0.575
[3]; first compound 0.1 µM
  relative viability: 0.21
[4]; first compound 0.003162 µM
  relative viability: 0.912
[4]; first compound 0.01 µM
  relative viability: 0.941
[4]; first compound 0.03162 µM
  relative viability: 0.877
[4]; first compound 0.1 µM
  relative viability: 0.189
[5]; first compound 0.003162 µM
  relative viability: 0.918
[5]; first compound 0.01 µM
  relative viability: 1.03
[5]; first compound 0.03162 µM
  relative viability: 0.764
[5]; first compound 0.1 µM
  relative viability: 0.158

## NCI-H322M
[1]; first compound 0.003162 µM
  relative viability: 0.665
[1]; first compound 0.01 µM
  relative viability: 0.572
[1]; first compound 0.03162 µM
  relative viability: 0.388
[1]; first compound 0.1 µM
  relative viability: 0.208
[2]; first compound 0.003162 µM
  relative viability: 0.608
[2]; first compound 0.01 µM
  relative viability: 0.511
[2]; first compound 0.03162 µM
  relative viability: 0.402
[2]; first compound 0.1 µM
  relative viability: 0.29
[3]; first compound 0.003162 µM
  relative viability: 0.251
[3]; first compound 0.01 µM
  relative viability: 0.206
[3]; first compound 0.03162 µM
  relative viability: 0.123
[3]; first compound 0.1 µM
  relative viability: 0.0962
[4]; first compound 0.003162 µM
  relative viability: 1.27
[4]; first compound 0.03162 µM
  relative viability: 1.06
[4]; first compound 0.1 µM
  relative viability: 0.858
[5]; first compound 0.003162 µM
  relative viability: 0.837
[5]; first compound 0.01 µM
  relative viability: 0.656
[5]; first compound 0.03162 µM
  relative viability: 0.356
[5]; first compound 0.1 µM
  relative viability: 0.26
